# Results from US8394968B2, “Hepatitis C virus inhibitors” (Bristol-Myers Squibb Company, priority 2009, dated 2013).
# Where two headings read alike, the source gives them in different places.
# Tested on: HCV 1b genotype
# Assay: HCV Replicon assay (HCV-neo replicon cells, wild-type; luciferase reporter variants also used)
# Type: cell-based
# Conditions: Hepatitis C virus, HCV 1b genotype replicon
# Method: An HCV Replicon assay was utilized in the present disclosure, and was prepared, conducted and validated as described in commonly owned PCT/US2006/022197 and in O'Boyle et. al. Antimicrob Agents Chemother. 2005 April; 49(4):1346-53. Assay methods incorporating luciferase reporters have also been used as described (Apath.com).
# HCV-neo replicon cells and replicon cells containing mutations in the NS5A region were used to test the currently described family of compounds. The compounds were determined to have more than 10-fold less inhibitory activity on cells containing mutations than wild-type cells. Thus, the compounds of the present disclosure can be effective in inhibiting the function of the HCV NS5A protein and are understood to be as effective in combinations as previously described in application PCT/US2006/022197 and commonly owned WO/04014852. Further, the compounds of the present disclosure can be effective against the HCV 1b genotype. It should also be understood that the compounds of the present disclosure can inhibit multiple genotypes of HCV. […] In one embodiment, compounds of the present disclosure are inhibitory versus 1a, 1b, 2a, 2b, 3a, 4a, and 5a genotypes.
Structure (SMILES),EC50 (read-out: EC50) [nM],"EC50 (class symbol, read-out: EC50 Range) [nM]"
"COC(=O)NC(C(=O)N1CCC[C@H]1c1nc2ccc(-c3ccc(-c4ccc5c(ccc6[nH]c([C@@H]7CCCN7C(=O)C(NC(=O)OC)c7ccccc7)nc65)c4)cc3)cc2[nH]1)c1ccccc1 (stereo in doubt) [J.27c, methyl ((1R)-2-((2S)-2-(7-(4-(2-((2S)-1-((2R)-2-((methoxycarbonyl)amino)-2-phenylacetyl)-2-pyrrolidinyl)-1H-benzimidazol-5-yl)phenyl)-1H-naphtho[1,2-d]imidazol-2-yl)-1-pyrrolidinyl)-2-oxo-1-phenylethyl)carbamate]",0.003,
"COC(=O)NC(C(=O)N1CCC[C@H]1c1nc2ccc(C#Cc3cccc(-c4[nH]cnc4[C@@H]4CCCN4C(=O)[C@@H](NC(=O)OC)C(C)C)c3)cc2[nH]1)C(C)C (stereo in doubt) [J.28l, methyl ((1S)-1-(((2S)-2-(5-(3-((2-((2S)-1-((2R)-2-((methoxycarbonyl)amino)-3-methylbutanoyl)-2-pyrrolidinyl)-1H-benzimidazol-5-yl)ethynyl)phenyl)-1H-imidazol-4-yl)-1-pyrrolidinyl)carbonyl)-2-methylpropyl)carbamate]",7,4.57 to 99
